The NIST ThermoML archive (doi:10.1016/j.tca.2013.03.025)
Values joined by “and” are separate entries in the source; they are usually repeats but may differ in a detail not shown here. Equal values may be shown once. Numbers after ± are expanded uncertainties.

Experiments:
[1] = xn = mol fraction of the nth substance listed; settings: 101 kPa, Liquid, x2 = 0; for viscosity: Concentric cylinders viscometry; for mass density: Vibrating tube method
[2] = refractive index (Na D-line) (dimensionless); xn = mol fraction of the nth substance listed; settings: 101 kPa, Liquid, Standard Abbe refractometry, x2 = 0
[3] = 101 kPa, Liquid; for viscosity: Concentric cylinders viscometry; for mass density: Vibrating tube method
[4] = refractive index (Na D-line) (dimensionless); settings: 101.33 kPa, Liquid, Standard Abbe refractometry

OCCCO [propan-1,3-diol] + CCCCOC(=O)C(C)O
Settings | mass density, [1] [kg/m3] | refractive index, [2] | viscosity, [1] [mPa·s]
288.15 K | 1055.96 ± 0.27 | 1.44072 ± 0.00037 | 66.71 ± 0.68
293.15 K | 1052.86 ± 0.27 | 1.43932 ± 0.00037 | 52.02 ± 0.49
298.15 K | 1049.75 ± 0.27 | 1.43793 ± 0.00037 | 41.11 ± 0.41
303.15 K | 1046.63 ± 0.27 | 1.43653 ± 0.00037 | 32.89 ± 0.33
308.15 K | 1043.5 ± 0.26 | 1.43512 ± 0.00037 | 26.61 ± 0.26
313.15 K | 1040.35 ± 0.26 | 1.43374 ± 0.00037 | 21.76 ± 0.22
318.15 K | 1037.17 ± 0.26 | 1.43232 ± 0.00037 | 17.97 ± 0.18
323.15 K | 1033.98 ± 0.26 | 1.43087 ± 0.00037 | 14.97 ± 0.15

OCCCO [propan-1,3-diol]
Settings | mass density, [3] [kg/m3] | refractive index, [4] | viscosity, [3] [mPa·s]
288.15 K | 1055.96 ± 0.27 | 1.44072 ± 0.00037 | 66.71 ± 0.68
293.15 K | 1052.86 ± 0.27 | 1.43932 ± 0.00037 | 52.02 ± 0.49
298.15 K | 1049.75 ± 0.27 | 1.43793 ± 0.00037 | 41.11 ± 0.41
303.15 K | 1046.63 ± 0.27 | 1.43653 ± 0.00037 | 32.89 ± 0.33
308.15 K | 1043.5 ± 0.26 | 1.43512 ± 0.00037 | 26.61 ± 0.26
313.15 K | 1040.35 ± 0.26 | 1.43374 ± 0.00037 | 21.76 ± 0.22
318.15 K | 1037.17 ± 0.26 | 1.43232 ± 0.00037 | 17.97 ± 0.18
323.15 K | 1033.98 ± 0.26 | 1.43087 ± 0.00037 | 14.97 ± 0.15

CCCO [propan-1-ol] + CCCCOC(=O)C(C)O
Settings | mass density, [1] [kg/m3] | refractive index, [2] | viscosity, [1] [mPa·s]
288.15 K | 807.752 ± 0.14 | 1.38751 ± 0.00033 | 2.514 ± 0.024
293.15 K | 803.767 ± 0.14 | 1.38543 ± 0.00033 | 2.208 ± 0.021
298.15 K | 799.755 ± 0.14 | 1.3834 ± 0.00033 | 1.95 ± 0.019
303.15 K | 795.717 ± 0.14 | 1.38137 ± 0.00033 | 1.727 ± 0.017
308.15 K | 791.638 ± 0.14 | 1.37918 ± 0.00033 | 1.542 ± 0.015
313.15 K | 787.521 ± 0.14 | 1.37702 ± 0.00033 | 1.378 ± 0.014
318.15 K | 783.357 ± 0.15 | 1.37482 ± 0.00033 | 1.236 ± 0.013
323.15 K | 779.137 ± 0.15 | 1.37262 ± 0.00033 | 1.124 ± 0.012

CC(O)CO (stereo not drawn) [1,2-propanediol] + CCCCOC(=O)C(C)O
Settings | mass density, [1] [kg/m3] | refractive index, [2] | viscosity, [1] [mPa·s]
288.15 K | 1039.87 ± 0.1 | 1.43437 ± 0.00033 | 82.54 ± 0.87
293.15 K | 1036.25 ± 0.099 | 1.4327 ± 0.00033 | 59.62 ± 0.52
298.15 K | 1032.56 ± 0.097 | 1.43102 ± 0.00033 | 44.03 ± 0.39
303.15 K | 1028.88 ± 0.095 | 1.42934 ± 0.00033 | 33.16 ± 0.3
308.15 K | 1025.14 ± 0.093 | 1.42764 ± 0.00033 | 25.45 ± 0.23
313.15 K | 1021.35 ± 0.092 | 1.42591 ± 0.00033 | 19.85 ± 0.18
318.15 K | 1017.52 ± 0.09 | 1.4242 ± 0.00033 | 15.73 ± 0.14
323.15 K | 1013.66 ± 0.088 | 1.42246 ± 0.00033 | 12.64 ± 0.11

CCCO [propan-1-ol]
Settings | mass density, [3] [kg/m3] | refractive index, [4] | viscosity, [3] [mPa·s]
288.15 K | 807.752 ± 0.14 | 1.38751 ± 0.00033 | 2.514 ± 0.024
293.15 K | 803.767 ± 0.14 | 1.38543 ± 0.00033 | 2.208 ± 0.021
298.15 K | 799.755 ± 0.14 | 1.3834 ± 0.00033 | 1.95 ± 0.019
303.15 K | 795.717 ± 0.14 | 1.38137 ± 0.00033 | 1.727 ± 0.017
308.15 K | 791.638 ± 0.14 | 1.37918 ± 0.00033 | 1.542 ± 0.015
313.15 K | 787.521 ± 0.14 | 1.37702 ± 0.00033 | 1.378 ± 0.014
318.15 K | 783.357 ± 0.15 | 1.37482 ± 0.00033 | 1.236 ± 0.013
323.15 K | 779.137 ± 0.15 | 1.37262 ± 0.00033 | 1.124 ± 0.012

CC(O)CO (stereo not drawn) [1,2-propanediol]
Settings | mass density, [3] [kg/m3] | refractive index, [4] | viscosity, [3] [mPa·s]
288.15 K | 1039.87 ± 0.1 | 1.43437 ± 0.00033 | 82.54 ± 0.87
293.15 K | 1036.25 ± 0.099 | 1.4327 ± 0.00033 | 59.62 ± 0.52
298.15 K | 1032.56 ± 0.097 | 1.43102 ± 0.00033 | 44.03 ± 0.39
303.15 K | 1028.88 ± 0.095 | 1.42934 ± 0.00033 | 33.16 ± 0.3
308.15 K | 1025.14 ± 0.093 | 1.42764 ± 0.00033 | 25.45 ± 0.23
313.15 K | 1021.35 ± 0.092 | 1.42591 ± 0.00033 | 19.85 ± 0.18
318.15 K | 1017.52 ± 0.09 | 1.4242 ± 0.00033 | 15.73 ± 0.14
323.15 K | 1013.66 ± 0.088 | 1.42246 ± 0.00033 | 12.64 ± 0.11

CCCCOC(=O)C(C)O (stereo not drawn) [butyl 2-hydroxypropanoate]
Settings | mass density, [3] [kg/m3] | refractive index, [4] | viscosity, [3]
288.15 K | 987.269 ± 1.8 | 1.42379 ± 0.00068 | 4.628 ± 0.081 mPa·s
293.15 K | 982.366 ± 1.8 | 1.42152 ± 0.00068 | 3.88 ± 0.068 mPa·s
298.15 K | 977.448 ± 1.8 | 1.41925 ± 0.00068 | 3.307 ± 0.058 mPa·s
303.15 K | 972.515 ± 1.8 | 1.41697 ± 0.00068 | 2.85 ± 0.05 mPa·s and 2.86 ± 0.05 mPa·s
308.15 K | 967.567 ± 1.8 | 1.41469 ± 0.00068 and 1.4147 ± 0.00068 | 2.481 ± 0.043 mPa·s
313.15 K | 962.603 ± 1.8 | 1.4124 ± 0.00068 and 1.41241 ± 0.00068 | 2.181 ± 0.038 mPa·s
318.15 K | 957.624 ± 1.7 | 1.41006 ± 0.00068 and 1.41005 ± 0.00068 | 1.935 ± 0.034 mPa·s
323.15 K | 952.631 ± 1.7 | 1.40778 ± 0.00068 | 1.728 ± 0.031 mPa·s
